# Where two headings read alike, the source gives them in different places.
# Legend:
# Dendritic cells [1] = test: Induction of IL-12 secretion in dendritic cells (ELISA); format: cell-based, BALB/c mice; settings: for IL-12 RELEASE: dendritic cells, compounds 50 μg/ml and 20 μg/ml, 24 hrs (or 48 hrs)
# Description: BALB/c male and female mice bred and maintained at the University of Strathclyde under conventional conditions were used at 8 weeks old.
# Bone marrow was obtained from the femurs of mice. The femurs were washed in 70% ethanol and placed in a clean petri dish. Dendritic cell (DC) medium (2.5% granulocyte-macrophage colony-stimulating factor (GM-CSF), 10% […] foetal calf serum, 1% L-glutamine, 1% Penicillin/Streptomycin in RPMI-1640 medium) was injected into the bone marrow of the femur by a pumping action and the cells and medium were collected. 1 ml of the cells in medium was added to a 75 cm^2 flask with 15 mls of DC medium. The flasks were then incubated at 37° C., 5% CO2 to allow DC growth and development. After 5 days an additional 10 mls of DC medium was added.
# After 10 days of incubation of bone marrow with GM-CSF, the dendritic cells were harvested. This process was carried out in a tissue culture hood. The contents of the flasks were poured into centrifuge tubes to ensure collection of floating DCs. Approximately 10 mls of cooled phosphate buffered saline (PBS) was added to each empty flask, the flasks gently agitated and the contents collected. […] The collected contents of the flasks were centrifuged for 5 minutes at 200 g and the pellet resuspended in 2 mls of DC medium without GM-CSF. A cell count was then carried out.
# Cells were counted using a haemocytometer. Approximately 20 μl of the resuspended cells was pipetted into the chamber of the haemocytometer, the cells were adjusted to the correct cell concentration (approx. 5×10^4, and not less than 1×10^4, per well) and then plated out for assay.
# The plates were incubated overnight at 37° C. with 5% CO2 and allowed to settle (harvesting stimulates them). The next day the compounds (50 μg/ml and 20 μg/ml) and controls were added then again incubated at 37° C. with 5% CO2 for 24 hrs (or 48 hrs). Harvesting and addition of the compounds was all done in a hood. The plates were then frozen to kill the cells and once defrosted the supernatant analysed as described below.
# Using an enzyme linked immunosorbent assay (ELISA) IL-12 concentration in the supernatants was measured. All reagents used in this assay were from PharMingen. A 96-well flat-bottomed ELISA plate was coated with purified rat anti-mouse IL-12 (p40/p70) MAb (Cat no. 554478) at 2 μg/ml diluted in PBS pH 9.0 at 50 μl/well. The plate was then covered in cling film and incubated at 4° C. Following incubation the plate was washed 3 times in washing buffer and dried. 200 μl of blocking buffer (10% foetal calf serum in PBS pH 7.0) was added to each well then covered in cling film and incubated at 37° C. for 45 minutes. The plate was washed 3 times and dried. Recombinant mouse Il-12 standard was added at 30 μl in duplicate wells, starting at 10 ng/ml then 5, 2.5, 1.25, 0.625, 0.31, 0.156, 0.078, 0.039, 0.020, 0.010, 0.005 ng/ml. Standards were diluted in blocking buffer. The supernatant samples were added in at 50 μl/well. The plate was then covered in cling film and incubated for 2 hours at 37° C. The plate was then washed 4 times, dried and the secondary antibody added.
# Biotin labelled anti-mouse IL-12 (p40/p70) MAb (Cat no. 18482D) at 1 μg/ml (diluted in blocking buffer) was added to each well at a volume of 100 μl/well. The plate was covered in cling film and incubated at 37° C. for 1 hour. The plate was then washed 5 times, dried and the conjugate added. Streptavidin-AKP (Cat no. 13043E) at 100 μl/well was added at a dilution of 1/2000 in blocking buffer followed by incubation under cling film at 37° C. for 45 minutes.
# The plate was finally washed 6 times, dried and the substrate added. pNPP (Sigma) in glycine buffer at 1 mg/ml was added at 100 μl/well. The plate was then covered in tinfoil, incubated at 37° C. and checked every 30 minutes for a colour change.
# The plate was then read at 405 nm using a SPECTRAmax 190 spectrometer.
# Dendritic cells [2] = format: cell-based, BALB/c mice
# Description: Bone marrow was obtained from the femurs of mice. The femurs were washed in 70% ethanol and placed in a clean petri dish. Dendritic cell (DC) medium (2.5% granulocyte-macrophage colony-stimulating factor (GM-CSF), 10% heat and activated foetal calf serum, 1% L-glutamine, 1% Penicillin/Streptomycin in RPMI-1640 medium) was injected into the bone marrow of the femur by a pumping action and the cells and medium were collected. 1 ml of the cells in medium was added to a 75 cm^2 flask with 15 mls of DC medium. The flasks were then incubated at 37° C., 5% CO2 to allow DC growth and development. After 5 days an additional 10 mls of DC medium was added.
# After 10 days of incubation of bone marrow with GM-CSF, the dendritic cells were harvested. This process was carried out in a tissue culture hood. The contents of the flasks were poured into centrifuge tubes to ensure collection of floating DCs. Approximately 10 mls of cooled phosphate buffered saline (PBS) was added to each empty flask, the flasks gently agitated and the contents collected. This ensured recovery of adhesive DCs. […]
# Cells were counted using a haemocytometer. […]
# The plates were incubated overnight at 37° C. with 5% CO2 and allowed to settle (harvesting stimulates them). […] The plates were then frozen to kill the cells and once defrosted the supernatant analysed as described below.
# Spleen cells = test: Cytokine modulation in spleen cells: splenocyte IFN-γ production; format: cell-based, BALB/c mice; settings: for IFN-γ: splenocytes
# Description: BALB/c male and female mice bred and maintained at the University of Strathclyde under conventional conditions were used at varying age.
# The mouse spleen was removed aseptically and placed in a sterile petri dish containing 5 mls of complete medium (RPMI, 1% L-Glutamine, 1% Penicillin/Streptomycin and 10% foetal calf serum). Cells suspensions were prepared by using the end of a syringe and grinding the spleen through a wire mesh. The cell suspension was then centrifuged at 1000 rpm for 5 minutes. To remove the erythrocytes, the cell pellet was resuspended in Boyle's solution (Tris 0.17M & Ammonium Chloride 0.16M) and centrifuged again for 5 minutes. The pellet was then washed in medium a further two times, then resuspended in 3 mls medium. A cell count was then carried out.
# All spleen cell experiments were carried out in 96-well tissue culture plates. […] Unstimulated wells contained 100 μl of cells and 100 μl of medium. The stimulated wells contained 100 μl of cells plus 50 μl of LPS at 1 μg/ml or 50 μl anti-CD3 at 0.5 μg/ml and 50 μl of medium. The remaining wells contained 100 μl cells, 50 μl of MNLP compound and either 50 μl of anti-CD3 or medium alone.
# The appropriate Mabs and standards were used according to the protocol described for IL-12 (described in Example 1, above).
# α-D-glucosidase [3] = test: Glycosidase inhibition, α-D-glucosidase (Bacillus); format: biochemical, Bacillus stearothermophilus; settings: 1 mg/ml
# Description: (§1) All enzymes were purchased from Sigma, as were the appropriate p-nitrophenyl substrates. Assays were carried out in microtitre plates. Enzymes were assayed in 0.1 M citric acid/0.2M di-sodium hydrogen phosphate (McIlvaine) buffers at the optimum pH for the enzyme. All assays were carried out at 20° C. For screening assays the incubation assay consisted of 10 μl of enzyme solution, 10 μl of inhibitor solution (made up in water) and 50 μl of the appropriate 5 mM p-nitrophenyl substrate (3.57 mM final conc.) made up in McIlvaine buffer at the optimum pH for the enzyme.
# (§2) The reactions were stopped with 0.4M glycine (pH 10.4) during the exponential phase of the reaction, which was determined at the beginning of the assay using blanks with water, which were incubated for a range of time periods to measure the reaction rate using 5 mM substrate solution. Endpoint absorbances were read at 405 nm with a Biorad microtitre plate reader (Benchmark). Water was substituted for the inhibitors in the blanks.
# β-D-glucosidase = test: Glycosidase inhibition, β-D-glucosidase; format: biochemical, Almonds (Prunus sp.); settings: for % inhibition glucosidase: 1 mg/ml
# Description: as §1, §2
# Naringinase = test: Glycosidase inhibition, Naringinase; format: biochemical, Penecillium decumbens; settings: 1 mg/ml
# Description: as §1, §2
# [4] = tested on: N-acetyl-β-D-glucosaminidase; test: Glycosidase inhibition, N-acetyl-β-D-glucosaminidase; format: biochemical, Bovine kidney; settings: 1 mg/ml
# Description: as §1, §2
# [5] = tested on: glycosidase enzymes of Table 4.1; test: Glycosidase inhibition, all enzymes tested (Table 4.1); format: biochemical; settings: 1 mg/ml; result in words
# Description: as §1, §2
# [6] = tested on: spleen cells from Leishmania major infected BALB/c mice; test: Non-healing leishmaniasis model: splenocyte IFN-γ; format: cell-based; settings: for IFN-γ: Table 10.1
# [7] = tested on: spleen cells from Leishmania major infected BALB/c mice; test: Non-healing leishmaniasis model: splenocyte IL-5; format: cell-based
# α-D-glucosidase [8] = target: T1, α-D-glucosidase (Saccharomyces cerevisiae, UniProt P53341); test: Glycosidase inhibition, α-D-glucosidase (yeast); format: biochemical, Saccharomyces cerevisiae (Baker's yeast); settings: at a concentration of 800 μM
# T1 construct: purchased Sigma
# Description: as §1, §2
# β-D-galactosidase = test: Glycosidase inhibition, β-D-galactosidase; format: biochemical, Bovine liver; settings: 1 mg/ml; second galactosidase line
# Description: as §1, §2
# [9] = target: rabbit gut mucosa α-D-glucosidase; test: Inhibition of rabbit gut mucosa α-D-glucosidase; format: biochemical
# [10] = target: T2, rabbit small intestine sucrase (Oryctolagus cuniculus, UniProt P07768); test: Inhibition of rabbit small intestine sucrase; format: biochemical; settings: at a concentration of 700 μM
# T2 construct: from tissue; host or cells: rabbit small intestine
# [11] = tested on: Na^+-dependent D-glucose uptake into ovine intestinal brush border membrane vesicles; test: Effect on glucose transport (competition assay with labelled D-glucose); format: biochemical
# α-mannosidase = settings: background statement; cited from earlier work
# T2 sequence (P07768 whole entry): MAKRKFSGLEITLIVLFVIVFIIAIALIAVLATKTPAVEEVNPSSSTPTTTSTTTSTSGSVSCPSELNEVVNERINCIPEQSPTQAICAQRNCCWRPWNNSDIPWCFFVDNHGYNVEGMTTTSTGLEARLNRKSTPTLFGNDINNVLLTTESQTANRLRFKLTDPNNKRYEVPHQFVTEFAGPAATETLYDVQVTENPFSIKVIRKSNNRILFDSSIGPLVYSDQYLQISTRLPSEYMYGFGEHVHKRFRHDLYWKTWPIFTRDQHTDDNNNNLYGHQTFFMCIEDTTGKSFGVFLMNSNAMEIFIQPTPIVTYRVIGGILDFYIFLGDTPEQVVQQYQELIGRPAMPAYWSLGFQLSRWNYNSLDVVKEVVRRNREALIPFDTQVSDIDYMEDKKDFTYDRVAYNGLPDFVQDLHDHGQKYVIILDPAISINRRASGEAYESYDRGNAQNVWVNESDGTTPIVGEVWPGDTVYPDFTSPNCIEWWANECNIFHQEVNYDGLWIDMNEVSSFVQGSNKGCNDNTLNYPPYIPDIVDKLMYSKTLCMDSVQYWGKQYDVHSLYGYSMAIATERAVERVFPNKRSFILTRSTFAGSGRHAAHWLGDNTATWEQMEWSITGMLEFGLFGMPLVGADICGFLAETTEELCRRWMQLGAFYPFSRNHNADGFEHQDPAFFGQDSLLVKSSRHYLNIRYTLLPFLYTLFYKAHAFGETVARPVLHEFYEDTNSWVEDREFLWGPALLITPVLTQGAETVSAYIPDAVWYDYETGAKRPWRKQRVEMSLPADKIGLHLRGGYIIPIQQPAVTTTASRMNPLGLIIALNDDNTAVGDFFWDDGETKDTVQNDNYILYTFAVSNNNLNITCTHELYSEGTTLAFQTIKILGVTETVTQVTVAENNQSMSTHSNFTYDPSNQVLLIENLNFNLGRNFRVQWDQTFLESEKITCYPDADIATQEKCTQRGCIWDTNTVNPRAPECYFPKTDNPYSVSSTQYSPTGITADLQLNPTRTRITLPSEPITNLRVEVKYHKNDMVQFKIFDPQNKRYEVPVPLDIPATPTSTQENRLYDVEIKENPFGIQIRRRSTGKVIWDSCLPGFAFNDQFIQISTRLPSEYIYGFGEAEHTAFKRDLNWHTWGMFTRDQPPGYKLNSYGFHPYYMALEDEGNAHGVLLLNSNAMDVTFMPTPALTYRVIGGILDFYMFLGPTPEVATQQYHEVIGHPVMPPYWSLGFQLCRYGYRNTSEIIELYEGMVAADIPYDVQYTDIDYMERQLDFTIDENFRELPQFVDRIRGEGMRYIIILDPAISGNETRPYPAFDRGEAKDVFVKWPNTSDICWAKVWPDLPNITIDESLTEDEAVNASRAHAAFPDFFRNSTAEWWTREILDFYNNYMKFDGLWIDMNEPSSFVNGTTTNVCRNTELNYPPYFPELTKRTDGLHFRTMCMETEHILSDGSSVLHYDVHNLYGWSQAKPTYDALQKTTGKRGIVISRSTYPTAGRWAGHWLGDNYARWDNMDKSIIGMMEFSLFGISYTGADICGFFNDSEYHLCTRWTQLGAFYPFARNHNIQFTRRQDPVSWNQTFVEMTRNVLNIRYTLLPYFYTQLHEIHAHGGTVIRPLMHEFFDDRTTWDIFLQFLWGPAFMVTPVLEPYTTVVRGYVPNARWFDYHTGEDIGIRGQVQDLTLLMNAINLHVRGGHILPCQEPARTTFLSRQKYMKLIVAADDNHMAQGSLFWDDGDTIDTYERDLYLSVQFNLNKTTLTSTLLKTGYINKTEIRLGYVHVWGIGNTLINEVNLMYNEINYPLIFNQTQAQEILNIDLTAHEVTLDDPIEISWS
# T1 sequence (P53341 whole entry): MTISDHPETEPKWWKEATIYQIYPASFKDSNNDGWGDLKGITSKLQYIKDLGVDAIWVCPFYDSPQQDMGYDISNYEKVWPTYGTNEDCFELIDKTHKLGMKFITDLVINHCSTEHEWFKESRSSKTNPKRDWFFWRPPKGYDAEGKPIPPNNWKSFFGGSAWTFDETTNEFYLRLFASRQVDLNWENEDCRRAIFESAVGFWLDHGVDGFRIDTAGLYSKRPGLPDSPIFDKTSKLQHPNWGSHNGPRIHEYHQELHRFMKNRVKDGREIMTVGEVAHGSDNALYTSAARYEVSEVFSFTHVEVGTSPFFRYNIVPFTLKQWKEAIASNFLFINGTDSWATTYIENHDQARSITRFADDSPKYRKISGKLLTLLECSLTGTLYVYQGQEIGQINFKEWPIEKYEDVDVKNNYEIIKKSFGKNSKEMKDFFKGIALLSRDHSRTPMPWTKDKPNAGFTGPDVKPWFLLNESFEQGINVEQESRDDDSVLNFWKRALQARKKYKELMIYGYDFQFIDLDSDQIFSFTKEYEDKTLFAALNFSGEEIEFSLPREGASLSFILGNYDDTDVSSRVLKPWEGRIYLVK
smiles,measurement,setting,value
"OC[C@H]1[C@@H](O)[C@H](O)[C@H]2[C@@H](O)[C@@H](O)CN21 [3,7-diepi-casuarine (10), (1R,2R,3S,6S,7R,7aR)-3-(Hydroxymethyl)-1,2,6,7-tetrahydroxypyrrolizidine]",IL-12 RELEASE,Dendritic cells [1],Yes
same,IL-2 (units/ml),Dendritic cells [2]; compound + LPS,0.69 units/ml
same,IL-2 (units/ml),Dendritic cells [2]; treatment alone,0.00 units/ml
same,IFN-γ,"Spleen cells; Table 3.1, treatment alone",0.22 ng/mL
same,% inhibition gluc (Bacillus),α-D-glucosidase [3],−7%
same,% inhibition glucosidase,β-D-glucosidase,5%
same,% inhibition Naringinase,Naringinase,6%
same,% inhibition N-acetyl-β-gluc,[4],−6%
same,inhibition of any of the enzymes tested,[5],do not significantly inhibit any of the enzymes tested
same,IFN-γ,[6]; compound + L. major Ag,5.5 ng/mL
same,IFN-γ,[6]; treatment alone,~0.5 ng/mL
same,IFN-γ (healing Th1 response),[6]; result in words,enhances IFN-γ
same,IL-5,"[7]; Table 10.2, compound + αCD3",150 pg/mL
same,Th2 response (IL-5),[7]; result in words,suppressing the Th2 response (via downregulation of the Th2 cytokine IL-5)
"O[C@H]1[C@H](O)[C@@H](O)CN2CC[C@H](O)[C@H]12 [Castanospermine (20), Castanospermine, reference compound]",IL-12 RELEASE,Dendritic cells [1],No
same,IFN-γ,"Spleen cells; Table 3.2, compound + αCD3",9.0 ng/mL
same,IFN-γ,"Spleen cells; Table 3.2, treatment alone",<1.0 ng/mL
same,IFN-γ secretion/production in splenocytes,Spleen cells; result in words,inhibits the production of this cytokine
same,inhibition of yeast α-D-glucosidase,α-D-glucosidase [8],not being inhibitory
same,% inhibition gluc (Bacillus),α-D-glucosidase [3],6%
same,% inhibition glucosidase,β-D-glucosidase,88%
same,Ki,β-D-glucosidase; read-out: Ki with almond 6-D-glucosidase,9 µM
same,% inhibition galactosidase,β-D-galactosidase,16%
same,% inhibition Naringinase,Naringinase,39%
same,% inhibition N-acetyl-β-gluc,[4],16%
same,IC50,[9],8 µM
same,inhibition of rabbit small intestine sucrase,[10],inhibited
same,Glucose uptake,"[11]; initial rate, control 240",225 pmol/s/mg
same,glucose transport,[11]; result in words,slightly inhibited
"O[C@H]1[C@H]2[C@H](O)CCCN2C[C@H]1O [Swainsonine (4), Swainsonine]",IL-12 RELEASE,Dendritic cells [1],No
same,IL-12 secretion,Dendritic cells [1]; tested at 50 μg/ml,failed to induce IL-12 secretion
same,inhibition of α-mannosidase,α-mannosidase,potent and specific inhibitor of α-mannosidase
